The test system of assay [1] is malignant tumors of breast cancer patients. Description: Pathological complete response (pCR) attained by chemotherapy in breast cancer patients. It is filed as in vivo, human. Particulars: individual breast cancer patient, after chemotherapy regimen; 1 = pathological complete response. Here is the method: For breast cancer patients listed in Table 3 shown below, CDK1 expression level, CDK1 active value, CDK2 expression level, CDK2 active value of malignant tumors collected by needle biopsy before receiving chemotherapy are measured, and CDK1 specific activity and CDK2 specific activity are obtained. Further for each of patients shown in Table 3, whether or not pathological complete response (pCR) has been attained by the chemotherapy is shown in Table 3. In the column “pCR” in Table 3, “1” denotes pathological complete response.

The test system of assay [2] is tumor tissue of breast cancer patients. Kind of assay: Reduction rate of tumor after chemotherapy (tumor size before and after) in breast cancer patients. The class given is in vivo, human. The note with it: individual breast cancer patient, after receiving the chemotherapy prescribed in the regimen. Here is the method: Next, CDK1 expression level, CDK1 active value, CDK2 expression level, CDK2 active value of malignant tumors collected by needle biopsy from breast cancer patients before receiving chemotherapy are measured, and CDK1 specific activity and CDK2 specific activity are obtained. Meanwhile, the reduction rate of tumor is obtained by measuring a size of tumor tissue of each patient before and after the chemotherapy. In Table 1, CDK1 SA denotes CDK1 specific activity, CDK2SA denotes CDK2 specific activity, […] denotes cell cycle profile score, and reduction rate of tumor denotes reduction rate of tumors after receiving the chemotherapy prescribed in the regimen. In the column of the regimen, “wT” means paclitaxel, “FEC” means fluorouracil, cyclophosphamide, epirubicin, “CE” means cyclophosphamide, epirubicin, “Doce” means docetaxel, “ZL” means zoladex, “TM” means tamoxifen, and “UFT” means uracil, tegafur.

In the case of `CC(=O)O[C@H]1C(=O)[C@@]2(C)[C@H]([C@H](OC(=O)c3ccccc3)[C@]3(O)C[C@H](OC(=O)[C@H](O)[C@@H](NC(=O)c4ccccc4)c4ccccc4)C(C)=C1C3(C)C)[C@]1(OC(C)=O)CO[C@@H]1C[C@@H]2O` [wT, paclitaxel], the pCR in assay [1] is listed as 0. Also, in assay [2], the “Reduction rate of tumor” value is listed as 70%.

(Values after patent US20100068743A1, “Method for predicting response of cancer patient to anticancer drug treatment” (John Wayne Cancer Institute and Sysmex Corporation, priority 2008, published 2010).)
